The supplement of paper PMC10307832

Columns and labels:
Test in all cases: relative viability (nuclei count vs DMSO), 5 days (fraction); higher = more cells survive
[1] = system: 201T
Summary of the method: (§1)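 Values are medians from duplicate plates. Each reflects relative viability, defined as the nuclei count of treated wells over that of vehicle wells. Lung cancer cell lines in 1536-well plates were pin-tool dosed one day after seeding with one drug alone or with a fixed anchor-drug dose plus five library-drug doses (not always all listed) in √10 steps, then fixed, stained and imaged at 4× after 5 days.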

[2] = system: BEN
Summary of the method: as §1

[3] = system: EPLC-272H
Summary of the method: as §1

[4] = system: HCC-15
Summary of the method: as §1

[5] = system: HCC-78
Summary of the method: as §1

[6] = system: LCLC-97TM1
Summary of the method: as §1

[7] = system: LU99A
Summary of the method: as §1

[8] = system: NCI-H1355
Summary of the method: as §1

[9] = system: NCI-H1395
Summary of the method: as §1

[10] = system: NCI-H2009
Summary of the method: as §1

[11] = system: NCI-H2085
Summary of the method: as §1

[12] = system: NCI-H2126
Summary of the method: as §1

[13] = system: NCI-H2228
Summary of the method: as §1

[14] = system: NCI-H23
Summary of the method: as §1

[15] = system: NCI-H2405
Summary of the method: as §1

[16] = system: NCI-H322M
Summary of the method: as §1

[17] = system: NCI-H460
Summary of the method: as §1

[18] = system: NCI-H647
Summary of the method: as §1

[19] = system: NCI-H650
Summary of the method: as §1

[20] = system: NCI-H661
Summary of the method: as §1

[21] = system: NCI-H838
Summary of the method: as §1

[22] = system: PC-14
Summary of the method: as §1

For `Cc1csc(=NC2CCCCC2)n1/N=C/c1ccc(O)c(O)c1O` [MIM1] + C[C@]1(O)C[C@@H](c2nc(-c3ccc4ccc(-c5ccccc5)nc4c3)c3c(N)nccn32)C1 [Linsitinib] (partner 1 µM), the relative viability ([1]; first compound 0.2 µM) was 1.02, the relative viability ([1]; first compound 0.6325 µM) was 1.04 and the relative viability ([1]; first compound 2 µM) was 1.04. For the same compound, the relative viability ([1]; first compound 6.325 µM) was 1.03, the relative viability ([1]; first compound 20 µM) was 1.25 and the relative viability ([2]; first compound 0.2 µM) was 0.888. The relative viability ([2]; first compound 0.6325 µM) was 0.877, the relative viability ([2]; first compound 2 µM) was 0.981 and the relative viability ([2]; first compound 6.325 µM) was 0.826. The relative viability ([2]; first compound 20 µM) was 0.42, the relative viability ([3]; first compound 0.2 µM) was 1.06 and the relative viability ([3]; first compound 0.6325 µM) was 1.15. The relative viability ([3]; first compound 2 µM) was 1.17, the relative viability ([3]; first compound 6.325 µM) was 1.26 and the relative viability ([3]; first compound 20 µM) was 0.988. For the same compound, the relative viability ([4]; first compound 0.2 µM) was 0.901, the relative viability ([4]; first compound 0.6325 µM) was 0.808 and the relative viability ([4]; first compound 2 µM) was 0.941. It also gave a relative viability ([4]; first compound 6.325 µM) of 0.476, a relative viability ([4]; first compound 20 µM) of 0.211 and a relative viability ([5]; first compound 0.2 µM) of 0.551. For the same compound, the relative viability ([5]; first compound 0.6325 µM) was 0.594, the relative viability ([5]; first compound 2 µM) was 0.488 and the relative viability ([5]; first compound 6.325 µM) was 0.439. It also gave a relative viability ([5]; first compound 20 µM) of 0.541, a relative viability ([6]; first compound 0.2 µM) of 0.171 and a relative viability ([6]; first compound 0.6325 µM) of 0.226. The relative viability ([6]; first compound 2 µM) was 0.166, the relative viability ([6]; first compound 6.325 µM) was 0.207 and the relative viability ([6]; first compound 20 µM) was 0.214. The relative viability ([7]; first compound 0.2 µM) was 0.528, the relative viability ([7]; first compound 0.6325 µM) was 0.57 and the relative viability ([7]; first compound 2 µM) was 0.489. It also gave a relative viability ([7]; first compound 6.325 µM) of 0.545, a relative viability ([7]; first compound 20 µM) of 0.284 and a relative viability ([8]; first compound 0.2 µM) of 0.812. The relative viability ([8]; first compound 0.6325 µM) was 0.882, the relative viability ([8]; first compound 2 µM) was 0.898 and the relative viability ([8]; first compound 6.325 µM) was 0.74. It also gave a relative viability ([8]; first compound 20 µM) of 0.879, a relative viability ([9]; first compound 0.2 µM) of 0.927 and a relative viability ([9]; first compound 0.6325 µM) of 1.03. For the same compound, the relative viability ([9]; first compound 2 µM) was 1.07, the relative viability ([9]; first compound 6.325 µM) was 0.606 and the relative viability ([9]; first compound 20 µM) was 0.355. For the same compound, the relative viability ([10]; first compound 0.2 µM) was 1.25, the relative viability ([10]; first compound 0.6325 µM) was 1.18 and the relative viability ([10]; first compound 2 µM) was 1.18. For the same compound, the relative viability ([10]; first compound 6.325 µM) was 1.06, the relative viability ([10]; first compound 20 µM) was 1.05 and the relative viability ([11]; first compound 0.2 µM) was 1.04. The relative viability ([11]; first compound 0.6325 µM) was 0.912, the relative viability ([11]; first compound 2 µM) was 0.971 and the relative viability ([11]; first compound 6.325 µM) was 0.815. For the same compound, the relative viability ([11]; first compound 20 µM) was 0.934, the relative viability ([12]; first compound 0.2 µM) was 0.715 and the relative viability ([12]; first compound 0.6325 µM) was 0.695. It also gave a relative viability ([12]; first compound 2 µM) of 0.744, a relative viability ([12]; first compound 6.325 µM) of 0.707 and a relative viability ([12]; first compound 20 µM) of 0.702. For the same compound, the relative viability ([13]; first compound 0.2 µM) was 0.752, the relative viability ([13]; first compound 0.6325 µM) was 0.638 and the relative viability ([13]; first compound 2 µM) was 0.877. For the same compound, the relative viability ([13]; first compound 6.325 µM) was 0.217, the relative viability ([13]; first compound 20 µM) was 0.208 and the relative viability ([14]; first compound 0.2 µM) was 0.553. For the same compound, the relative viability ([14]; first compound 2 µM) was 0.488, the relative viability ([14]; first compound 6.325 µM) was 0.58 and the relative viability ([14]; first compound 20 µM) was 0.215. For the same compound, the relative viability ([15]; first compound 0.2 µM) was 0.906, the relative viability ([15]; first compound 0.6325 µM) was 1.08 and the relative viability ([15]; first compound 2 µM) was 0.946. The relative viability ([15]; first compound 6.325 µM) was 0.778, the relative viability ([15]; first compound 20 µM) was 0.742 and the relative viability ([16]; first compound 0.2 µM) was 1.01. It also gave a relative viability ([16]; first compound 0.6325 µM) of 0.981, a relative viability ([16]; first compound 2 µM) of 1.05 and a relative viability ([16]; first compound 6.325 µM) of 0.905. For the same compound, the relative viability ([16]; first compound 20 µM) was 0.912, the relative viability ([17]; first compound 0.2 µM) was 0.791 and the relative viability ([17]; first compound 0.6325 µM) was 0.783. The relative viability ([17]; first compound 2 µM) was 0.582, the relative viability ([17]; first compound 6.325 µM) was 0.287 and the relative viability ([17]; first compound 20 µM) was 0.022. For the same compound, the relative viability ([18]; first compound 0.2 µM) was 1.28, the relative viability ([18]; first compound 0.6325 µM) was 1.07 and the relative viability ([18]; first compound 2 µM) was 1.32. It also gave a relative viability ([18]; first compound 6.325 µM) of 0.807, a relative viability ([18]; first compound 20 µM) of 0.868 and a relative viability ([19]; first compound 0.2 µM) of 0.964. It also gave a relative viability ([19]; first compound 0.6325 µM) of 0.843, a relative viability ([19]; first compound 2 µM) of 0.938 and a relative viability ([19]; first compound 6.325 µM) of 0.824. The relative viability ([19]; first compound 20 µM) was 0.234, the relative viability ([20]; first compound 0.2 µM) was 0.575 and the relative viability ([20]; first compound 0.6325 µM) was 0.737. The relative viability ([20]; first compound 2 µM) was 0.547, the relative viability ([20]; first compound 6.325 µM) was 0.449 and the relative viability ([20]; first compound 20 µM) was 0.255. It also gave a relative viability ([21]; first compound 0.2 µM) of 0.887, a relative viability ([21]; first compound 0.6325 µM) of 1.1 and a relative viability ([21]; first compound 2 µM) of 0.851. For the same compound, the relative viability ([21]; first compound 6.325 µM) was 0.765, the relative viability ([21]; first compound 20 µM) was 0.464 and the relative viability ([22]; first compound 0.2 µM) was 0.893. It also gave a relative viability ([22]; first compound 0.6325 µM) of 0.932, a relative viability ([22]; first compound 2 µM) of 0.956 and a relative viability ([22]; first compound 6.325 µM) of 0.719. For the same compound, the relative viability ([22]; first compound 20 µM) was 0.499.
